According to ChEMBL document CHEMBL5104134, “Targeting the interaction of β-catenin and TCF/LEF transcription factors to inhibit oncogenic Wnt signaling” (Bioorg Med Chem, 2022):
One block for each molecule: values may come before it. Starred links: 1 amine or outer side, 2 acyl side, 3 side chain; linkers in the order of their positions; H or OH if unused. Positions of bridges follow the written chain, without caps; N, C: chain ends. Non-standard residues stand in square brackets, D forms with d. Residues, ends and D or L forms follow the SMILES beside them. X1 = C(=C\[*:2])/CC[*:1]; βAla = NCCC(=O)O

Key:
[1] = Inhibition of Wnt reporter activity in human SW480 cells by cell based assay; format: functional
[2] = molecular target: T1, TCF4-CTNNB1 complex (Homo sapiens, UniProt P35222); test: Inhibition of His-tagged beta-catenin (134 to 668 residues)/CM-5 sensor chip immobilized N-terminal GST-tagged TCF4 interaction (unknown origin) preincubated with beta-catenin for 15 mins followed by TCF4 addition measured after 60 secs by SPR analysis; format: protein-complex assay
T1 sequence (P35222 whole entry): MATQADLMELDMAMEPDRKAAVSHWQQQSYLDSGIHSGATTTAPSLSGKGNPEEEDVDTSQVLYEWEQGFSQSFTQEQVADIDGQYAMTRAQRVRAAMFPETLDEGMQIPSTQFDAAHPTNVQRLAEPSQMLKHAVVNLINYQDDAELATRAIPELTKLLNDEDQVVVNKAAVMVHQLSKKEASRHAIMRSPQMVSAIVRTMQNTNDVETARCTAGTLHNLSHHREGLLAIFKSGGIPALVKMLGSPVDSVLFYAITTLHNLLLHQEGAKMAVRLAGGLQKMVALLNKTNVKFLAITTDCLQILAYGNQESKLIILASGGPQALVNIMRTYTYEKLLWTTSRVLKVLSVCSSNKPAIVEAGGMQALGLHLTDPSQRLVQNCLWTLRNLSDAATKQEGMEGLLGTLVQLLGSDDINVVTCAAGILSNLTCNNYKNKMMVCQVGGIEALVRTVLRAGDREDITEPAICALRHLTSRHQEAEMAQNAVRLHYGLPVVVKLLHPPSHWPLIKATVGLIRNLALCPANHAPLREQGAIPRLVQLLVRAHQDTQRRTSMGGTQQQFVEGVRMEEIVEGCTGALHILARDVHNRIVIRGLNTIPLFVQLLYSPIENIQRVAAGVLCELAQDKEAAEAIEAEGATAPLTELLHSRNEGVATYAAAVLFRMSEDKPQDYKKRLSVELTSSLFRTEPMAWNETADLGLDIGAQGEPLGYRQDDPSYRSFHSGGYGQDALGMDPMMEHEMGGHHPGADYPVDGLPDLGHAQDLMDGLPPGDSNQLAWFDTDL
T1 sequence (P15884 whole entry): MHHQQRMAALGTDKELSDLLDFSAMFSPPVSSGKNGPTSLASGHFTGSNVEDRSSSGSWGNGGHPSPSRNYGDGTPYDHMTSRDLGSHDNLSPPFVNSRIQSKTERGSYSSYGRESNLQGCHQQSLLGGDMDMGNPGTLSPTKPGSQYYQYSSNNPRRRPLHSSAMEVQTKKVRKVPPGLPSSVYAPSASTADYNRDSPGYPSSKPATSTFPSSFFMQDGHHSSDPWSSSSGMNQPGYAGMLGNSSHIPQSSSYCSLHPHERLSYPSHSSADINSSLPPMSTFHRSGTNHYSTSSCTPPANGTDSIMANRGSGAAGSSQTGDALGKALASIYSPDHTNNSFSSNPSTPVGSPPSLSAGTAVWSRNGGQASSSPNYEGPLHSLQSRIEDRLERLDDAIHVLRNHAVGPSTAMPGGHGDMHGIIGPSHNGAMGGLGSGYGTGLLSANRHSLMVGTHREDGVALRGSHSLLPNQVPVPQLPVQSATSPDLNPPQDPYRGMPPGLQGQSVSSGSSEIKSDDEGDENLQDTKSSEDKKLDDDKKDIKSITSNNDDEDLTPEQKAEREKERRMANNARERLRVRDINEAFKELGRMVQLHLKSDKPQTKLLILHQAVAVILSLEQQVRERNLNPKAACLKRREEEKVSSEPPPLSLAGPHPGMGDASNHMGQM

[3] = Inhibition of Wnt reporter activity in human HeLa cells by cell based assay
[4] = Antiproliferative activity against human LNCaP-abl cells assessed as inhibition of cell proliferation incubated for 5 days by Cell Titer-Fluor assay; format: functional, cell-based; settings: 120 h
[5] = Antiproliferative activity against human LNCaP-95 cells assessed as inhibition of cell proliferation incubated for 5 days by Cell Titer-Fluor assay; format: functional, cell-based; settings: LNCaP-95, 120 h

- IC50 [1]: 29 µM
Structure (SMILES): CCOC(=O)C[C@@H](NC(=O)[C@@H](Cc1ccc2ccccc2c1)NC(=O)Cc1cc2cc(Cl)ccc2[nH]1)C(=O)N[C@H](CC(=O)OCC)C(=O)OC

- IC50 [2]: 24 µM
Structure (SMILES): CCc1ccc(OCc2nnc(SC3CCCC3=O)n2C(C)c2ccccc2)cc1 (stereo not given)

- IC50 [3]: 8 µM
Structure (SMILES): CC(C)C[C@@H]1NC(=O)[C@H](CC(C)C)NC(=O)[C@H](CO)NC(=O)[C@H](CC(=O)O)NC(=O)[C@@H]2CCCN2C(=O)[C@@H]2CCCN2C(=O)[C@H](C(C)C)NC(=O)[C@H](CC(=O)O)NC(=O)[C@H](CC(N)=O)NC(=O)[C@H](CCCNC(=N)N)NC(=O)[C@@H]2CS/C=C/CCSC[C@H](NC1=O)C(=O)N[C@@H](Cc1ccccc1)C(=O)NCCC(=O)NCCC(=O)N[C@@H](C(C)C)C(=O)N2 (cyclo(CF[βAla][βAla]VCRNDVPPDSLL); linker 1-6 via X1)

Structure (SMILES): COc1cc(OC)cc(N2CC(=O)N(CCCOC(C)C)CC(=O)N(C(C)c3ccc(O)cc3)CC(=O)N(C(C)c3ccc(O)cc3)CC(=O)N[C@H](C)C(=O)N(CCc3ccccc3Oc3ccccc3)CC2=O)c1 (stereo not given in full)
- IC50 [4]: 0.2 µM
- IC50 [5]: 0.8 µM
